Test results reported in patent US20100061945A1, “Use Of Quinoa Extract As Cosmetic And Pharmaceutic Slimming Agent And/Or As An Agent Preventing The Formation Of New Fats In The Human Body” (Societe D'Exploitation Des Produits Pour Les Indus tries …, priority 2006, published 2010).

How the values were obtained:
normal human adipocytes = test: Lipolytic activity in isolated normal human adipocytes by assaying the free fatty acids; format: cell-based; conditions: incubation concentration 0.0001 weight % DE, two hours at 37° C.
[1] = system: murine preadipocytes (3T3-L1 line); test: Differentiation of preadipocytes to adipocytes, G6PDH activity assay; format: cell-based; conditions: incubation concentration 0.0000001 weight % DE (1 ng/ml)
Experimental: 1—Principle of the Method • The method described consists in incubating the product in the presence of murine preadipocytes (3T3-L1 line) which, under the influence of an appropriate culture medium, differentiate into mature adipocytes capable of storing triglycerides. The differentiation is evaluated by an enzymatic assay of Glucose-6-phosphate dehydrogenase (G6PDH). This enzyme, which is located within the adipocytes, allows the conversion of Glucose-6-phosphate to Gluconate-6-phosphate in the presence of Nicotinamide Adenine Dinucleotide Phosphate (NAPD) and leads to the formation of Hydrogenated Nicotinamide Adenine Dinucleotide Phosphate (NAPDH) used for the neosynthesis of fatty acids. It is present in the mature adipocytes. The formation of NAPDH is monitored by absorption spectrophotometry at 340 nanometers.
2—Experimental Protocol • (i)—Cellular model: The test is carried out using murine preadipocytes (3T3-L1 cell line) cultured in a monolayer until confluence is obtained. […] The G6PDH activity of the cellular lyzates is measured by adding its substrate, D-glucose 6P (1 mmol) and its cofactor NADP (8 mmol). The kinetics of appearance of NAPDH is measured by spectrophotometry at 340 nm for 2 minutes. […]

Compound: Cn1c(=O)c2c(ncn2C)n(C)c1=O [Caffeine, 1,3,7-trimethyl-xanthine]
- Lipolytic activity (compared with the control = 100) (normal human adipocytes): 154
- Free fatty acid concentration (normal human adipocytes; mean of five assays, control 16 ± 3): 25 ± 4 µmol

Compound: TNFα
- % inhibition (differentiation of the preadipocytes) [1]: 43%
- G6PDH ([1]; differentiated control 0.46 ± 0.03, undifferentiated control 0.03 ± 0.002): 0.005 ± 0.01 U/ml
